According to EP0351029B1, “Novel glucose isomerase enzymes and their use” (GENENCOR INTERNATIONAL, INC., priority 1988, dated 1990):

How the values were obtained:
[1] = target: T1, Actinoplanes missouriensis glucose isomerase (EcoAmi(DSM) GI), wildtype (WT-GI) (Actinoplanes missouriensis, UniProt P12851); assay: Catalytic parameters with D-xylose (D-sorbitol dehydrogenase coupled assay) or D-glucose (cysteine-carbazole method) as substrate; type: biochemical; settings: 35°C, pH 7.5, 10mM MgSO4
T1 construct: made in house; host or cells: E. coli K514 (pMa5-I / pMc5-I)
T1 sequence (P12851 whole entry): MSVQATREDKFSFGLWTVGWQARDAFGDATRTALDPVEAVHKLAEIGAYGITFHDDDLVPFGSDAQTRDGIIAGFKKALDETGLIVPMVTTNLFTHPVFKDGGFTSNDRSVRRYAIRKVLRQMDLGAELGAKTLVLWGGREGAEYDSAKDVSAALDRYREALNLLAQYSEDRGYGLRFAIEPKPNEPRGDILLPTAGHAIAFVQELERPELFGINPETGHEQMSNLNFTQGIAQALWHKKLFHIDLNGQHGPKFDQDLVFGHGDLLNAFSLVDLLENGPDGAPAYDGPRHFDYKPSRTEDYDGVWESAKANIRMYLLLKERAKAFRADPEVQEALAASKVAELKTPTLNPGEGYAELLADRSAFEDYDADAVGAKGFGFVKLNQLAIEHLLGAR
Experimental: (§1) In the D-Sorbitol Dehydrogenase Coupled Assay, enzymatic determination of D-xylulose was performed at 35°C as previously described (Kersters-Hilderson et al., Enzyme Microb. Technol. 9 (1987) 145) in 50mM triethanolamine, pH 7.5, 10mM MgSO4, and 0.1 M xylose, in the presence of ± 2 x 10^-8 M D-sorbitol dehydrogenase (L-iditol : NAD oxido-reductase, EC 1.1.14), and 0.15 nM NADH, except that the incubation buffer also included 1mM ethylenebis(oxyethylene-nitrilo)tetraacetic acid (EGTA). Glucose isomerase final concentration in this assay was ± 2.5 x 10^-3 mg/ml, and precisely determined as described above.
(§2) With glucose as a substrate GI activity can be assayed by the measurement of D-fructose produced during the isomerization reaction using the cysteine-carbazole method (CCM) which is based on the reaction of ketosugars with carbazole in acids to yield a purple product (Dische and Borenfreund, 1951).
(§3) • Spa = specific activity in micromoles of product (D-xylulose or D-fructose) per minute (unit), per mg of enzyme. • Vmax is expressed in units per mg of enzyme. • KM is the Michaelis constant, expressed in mM. • ND = not determined.

[2] = target: T2, Actinoplanes missouriensis glucose isomerase (EcoAmi(DSM) GI), mutant G70S;A73S;G74T (Actinoplanes missouriensis, UniProt P12851, A73S/G70S/G74T); type: biochemical; settings: D-xylose as substrate, coupled assay, 35°C, pH 7.5, 10mM MgSO4
T2 construct: made in house; host or cells: E. coli K514 (mutated pMa5-I / pMc5-I)
T2 sequence (P12851 whole entry G70S/A73S/G74T): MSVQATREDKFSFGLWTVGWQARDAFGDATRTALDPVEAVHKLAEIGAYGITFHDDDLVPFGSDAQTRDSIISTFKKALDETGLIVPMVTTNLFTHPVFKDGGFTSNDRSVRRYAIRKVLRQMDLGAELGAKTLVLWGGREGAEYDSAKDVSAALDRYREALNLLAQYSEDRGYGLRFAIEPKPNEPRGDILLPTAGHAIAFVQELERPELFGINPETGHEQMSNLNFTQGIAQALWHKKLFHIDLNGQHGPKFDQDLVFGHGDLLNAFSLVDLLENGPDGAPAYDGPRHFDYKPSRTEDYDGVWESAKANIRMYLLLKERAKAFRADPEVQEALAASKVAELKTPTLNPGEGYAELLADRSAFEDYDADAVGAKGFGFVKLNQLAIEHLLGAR
Experimental: as §1, §2, §3

O=C[C@H](O)[C@@H](O)[C@H](O)CO [Xylose, D-xylose]
Km [1]: 4.8 mM | Vmax (Xylose) [1]: 24.2 units per mg of enzyme | Km (Xylose) [2]: 5.3 mM | Vmax (Xylose) [2]: 24.9 units per mg of enzyme
